Assay results taken from patent US20230037905A1 (Vyne Therapeutics Inc., priority 2019, published 2023).
Counter-ions that a name gives are not always drawn.

Tests used:
[1] = system: Reconstructed Human Epidermis (RHE) tissues exposed to Th2 cytokines IL-4, IL-13, IL-25; assay: Reconstructed Human Epidermis (RHE) Th2 AD model (StratiCELL); format: cell-based; conditions: 48 h
Experimental: Reconstructed Human Epidermis (RHE) tissues are produced and grown by StratiCELL. To generate the morphological and functional aspects of AD, RHE samples are exposed to Th2 cytokines IL-4, IL-13, IL-25. Th-2 cytokines are applied for 48 h in the culture medium of epidermis. Test formulations are applied simultaneously with the cytokines on the stratum corneum of the epidermis during the same 48 h. The tissue morphology is assessed by histology and hemalum/eosin (H/E) staining—quantification of a fluorescent dye (biotin) diffusion through the epidermis in order to evaluate the barrier function.

[2] = Solubility test (saturated solutions, HPLC); format: physicochemical
Experimental: An additional analysis is performed after 48 hours of agitation to confirm the determined saturated concentration.

[3] = Compatibility test of tofacitinib citrate with excipients at 60° C.; format: physicochemical; set-up: TOF assay: unit not given here; conditions: 10 weeks at 60° C.
Experimental: The mixtures are tightly closed and exposed to 60° C. protected from light.

[4] = Stability of Tofacitinib Citrate solution in 50 mM citrate buffer of different pH at 60° C.; format: physicochemical; set-up: unit not given here
From the text: In one or more embodiments the pH, is about 4, about 4.1, about 4.2, about 4.3, about 4.4, about 4.5, about 4.6, about 4.7, about 4.8, about 4.9 or about 5.

[5] = as above; format: physicochemical; set-up: unit not given here; remark: listed apart in the source
[6] = in vivo; set-up: species or system Minipigs; conditions: minipig, Tofacitinib concentration
Experimental: Minipigs are treated topically on 10% body surface area, once daily for 14 days with the tested formulation.

[7] = Chemical stability of formulations (HPLC); format: physicochemical
Experimental: Where another active agent such as fingolimod is present in the formulations the samples are analysed for that active agent and its degradation products by HPLC. […] The gradient elution is employed.

[8] = molecular target: S1P receptors (S1P1 and S1P3-5); conditions: four of the five S1P receptors (S1P1 and S1P3-5); read-out: affinity; cited from earlier work
[9] = in Water + Carboxymethylcellulose
[10] = in Water + Glyceryl Monosteatate

CCCCCCCCc1ccc(CCC(N)(CO)CO)cc1 [Fingolimod, 2-amino-2-[2-(4-octylphenyl)ethyl]propane-1,3-diol]
barrier function (biotin immunofluorescence) ([1]; 0.001% w/w): reduced the Th2-induced barrier alteration | tissue morphology (histology, H/E staining) ([1]; 0.001% w/w): reduced the Th2-induced barrier alteration | barrier function (biotin immunofluorescence) ([1]; 0.01% w/w): reduced the Th2-induced barrier alteration | tissue morphology (histology, H/E staining) ([1]; 0.01% w/w): reduced the Th2-induced barrier alteration | tissue morphology (histology, H/E staining) ([1]; 0.1% w/w): increased fragilization was observed with junction/adhesion loss and disorganization of cell layers | barrier function (biotin immunofluorescence) ([1]; 0.1%): Increased barrier alteration | tissue morphology (histology, H/E staining) ([1]; 1% w/w): increased fragilization was observed with junction/adhesion loss and disorganization of cell layers | barrier function (biotin immunofluorescence) ([1]; 1%): Increased barrier alteration

C[C@@H]1CCN(C(=O)CC#N)C[C@@H]1N(C)c1ncnc2[nH]ccc12 [Tofacitinib citrate]
Solubility of TOF Citrate ([2]; in 0.02% HCl): 4.06 mg/g | Solubility of TOF Citrate ([2]; in 0.05% NaOH (degraded)): not detected | Solubility of TOF Citrate ([2]; in Benzyl Alcohol): 0.81 mg/g | Solubility of TOF Citrate ([2]; in DMSO): >150 mg/g | solubilized tofacitinib citrate concentration ([2]; in DMSO): > 15% | Solubility of TOF Citrate ([2]; in Diisopropyl adipate): 0.02 mg/g | Solubility of TOF Citrate ([2]; in Dimethyl isosorbate): 1.27 mg/g | Solubility of TOF Citrate ([2]; in Ethanol): 0.61 mg/g | Solubility of TOF Citrate ([2]; in Glycerin): 0.97 mg/g | Solubility of TOF Citrate ([2]; in Hexylene Glycol): 0.25 mg/g | Solubility of TOF Citrate ([2]; in Isopropyl Alcohol): 0.24 mg/g | Solubility of TOF Citrate ([2]; in Isopropyl myristate): <0.02 mg/g | Solubility of TOF Citrate ([2]; in MCT oil (Caprylic/capric triglycerides)): <0.01 mg/g | Solubility of TOF Citrate ([2]; in Oleyl alcohol): 0.09 mg/g | Solubility of TOF Citrate ([2]; in PPG-11 Stearyl ether): 0.02 mg/g | Solubility of TOF Citrate ([2]; in Propylene Glycol): 1.70 mg/g | Solubility of TOF Citrate ([2]; in Transcutol): 2.01 mg/g | Solubility of TOF Citrate ([2]; in Water): 2.77 mg/g | Solubility of TOF Citrate ([2]; in polyethylene glycol 200): 5.16 mg/g | solubilized tofacitinib citrate concentration ([2]; in polyethylene glycol 200): about 0.5% | Solubility of TOF Citrate ([2]; in polyethylene glycol 400): 6.96 mg/g | solubilized tofacitinib citrate concentration ([2]; in polyethylene glycol 400): about 0.7% | Deg. products ([3]; in MCT oil): 0.09 | TOF assay ([3]; in MCT oil): 108.4 | Deg. products [3, 9]: 9.33 | TOF assay [3, 9]: 48.1 | Deg. products ([3]; in Water + Ceteareth 20): 4.57 | TOF assay ([3]; in Water + Ceteareth 20): 67.7 | Deg. products ([3]; in Water + Glycerin): 10.16 | TOF assay ([3]; in Water + Glycerin): 63.9 | Deg. products [3, 10]: 2.62 | TOF assay [3, 10]: 75.6 | Deg. products ([3]; in Water + Hypermellose K100M): 4.64 | TOF assay ([3]; in Water + Hypermellose K100M): 14.2 | Deg. products ([3]; in Water + Methyl Paraben): 4.14 | TOF assay ([3]; in Water + Methyl Paraben): 81.6 | Deg. products ([3]; in Water + Propyl Paraben): 3.01 | TOF assay ([3]; in Water + Propyl Paraben): 93.0 | Deg. products ([3]; in Water + Stearic Acid): 3.64 | TOF assay ([3]; in Water + Stearic Acid): 79.4 | Deg. products ([3]; in Water + Stearyl Alcohol): 2.21 | TOF assay ([3]; in Water + Stearyl Alcohol): 73.1 | Deg. products ([3]; in Water + Xanthan Gum): 28.23 | TOF assay ([3]; in Water + Xanthan Gum): 7.7 | Deg. products ([3]; in Water): 1.90 | TOF assay ([3]; in Water): 106.7 | TOF assay ([4]; pH 4, 2 w): 106.31 | TOF assay ([4]; pH 4.5, 1 w): 108.64 | TOF assay ([4]; pH 4.5, 2 w): 99.84 | RRT 1.42 (impurity) ([4]; pH 5, 2 w): 0.14 | TOF assay ([4]; pH 5, 2 w): 101.02 | RRT 0.48 (impurity) ([5]; pH 3, 1 w): 0.10 | RRT 0.89 (impurity) ([5]; pH 3, 1 w): 0.10 | TOF assay ([5]; pH 3, 1 w): 93.92 | RRT 0.40 (impurity) ([5]; pH 3, 2 w): 0.09 | RRT 0.48 (impurity) ([5]; pH 3, 2 w): 0.11 | RRT 0.89 (impurity) ([5]; pH 3, 2 w): 0.09 | RRT 1.42 (impurity) ([5]; pH 3, 2 w): 0.09 | TOF assay ([5]; pH 3, 2 w): 100.09 | Imp B ([5]; pH 4, 1 w): 0.09 | TOF assay ([5]; pH 4, 1 w): 102.57 | RRT 1.42 (impurity) ([5]; pH 5, 1 w): 0.14 | RRT 0.80 (impurity) ([5]; pH 5, 2 w): 0.08 | TOF assay ([5]; pH 6, 1 w): 99.67 | RRT 0.89 (impurity) ([5]; pH 6, 2 w): 0.09 | TOF assay ([5]; pH 6, 2 w): 100.09

C[C@@H]1CCN(C(=O)CC#N)C[C@@H]1N(C)c1ncnc2[nH]ccc12 [Tofacitinib]
concentration at 4 h [6]: 1.48 ng/mL | concentration at 8 h [6]: 1.32 ng/mL | concentration at 24 h [6]: 0.688 ng/mL

CCCCCCCCc1ccc(CCC(N)(CO)CO)cc1 [fingolimod hydrochloride, Fingolimod hydrochloride]
chemical stability of active agent in formulation [7]: stable at 5° C., 40 °C and 50 °C

CCCCCCCCc1ccc(CC[C@](N)(CO)COP(=O)(O)O)cc1 [fingolimod-phosphate]
Kd [8]: 0.3 to 3.1 nM
